Experimental data taken from publication PMC9721373 (Antiviral Research, 2022).
Structures can show the parent of a compound that is named as a salt.

System: SARS2-S-mediated membrane fusion
Assay type: cell-based, SARS-CoV-2

CC(CN(C)C)CN1c2ccccc2Sc2ccccc21 (centres unmarked) [Alimemazine tartrate]
SARS2-S-mediated membrane fusion (average number of nuclei in each syncytium): reduced the formation of syncytia | membrane fusion by mutant SARS2-S (Δ69–70, N501Y, E484K, D614G): reduced the formation of syncytia
